Data published in US8497278B2, “Imidazo[1,2-a]pyridine compounds” (priority 2008, dated 2013).

Columns and labels:
[1] = test system: central benzodiazepine receptors; experiment: Central benzodiazepine receptor binding (test of Speth et al.); conditions: 1000 nM of the compound
Summary of the method: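 Radioligand binding by the Speth et al. method. Specific binding is total minus nonspecific binding, the latter measured with excess unlabelled ligand. Compounds screened at 1.0E-09, 1.0E-07 and 1.0E-05 M in single determination; values given as percent inhibition at 1000 nM compound.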

[2] = target: T1, α1 subtype containing GABA-A receptors (Homo sapiens, UniProt P14867+P18507); experiment: Two-electrode voltage clamp electrophysiology in Xenopus oocytes, potentiation of GABA EC20 response, α1; format: cell-based; conditions: 100 nM compound; for activation at 0.1 µM: read-out: Percentage of potentiation alpha1
T1 construct: expressed in transfected cells; host or cells: Xenopus laevis oocytes, cRNA injected
T1 sequence (P14867 28-456): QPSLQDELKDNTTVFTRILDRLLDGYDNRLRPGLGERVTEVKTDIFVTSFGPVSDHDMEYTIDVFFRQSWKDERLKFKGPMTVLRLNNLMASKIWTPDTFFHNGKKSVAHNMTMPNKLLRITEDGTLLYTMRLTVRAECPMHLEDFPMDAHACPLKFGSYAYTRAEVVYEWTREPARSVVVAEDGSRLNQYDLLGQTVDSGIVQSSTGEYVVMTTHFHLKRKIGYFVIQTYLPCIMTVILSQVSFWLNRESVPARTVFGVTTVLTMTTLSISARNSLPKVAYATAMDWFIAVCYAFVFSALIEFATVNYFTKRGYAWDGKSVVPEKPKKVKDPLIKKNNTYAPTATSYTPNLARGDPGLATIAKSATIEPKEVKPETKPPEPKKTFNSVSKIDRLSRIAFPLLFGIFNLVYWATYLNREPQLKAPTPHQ
T1 sequence (P28472 26-473 partner): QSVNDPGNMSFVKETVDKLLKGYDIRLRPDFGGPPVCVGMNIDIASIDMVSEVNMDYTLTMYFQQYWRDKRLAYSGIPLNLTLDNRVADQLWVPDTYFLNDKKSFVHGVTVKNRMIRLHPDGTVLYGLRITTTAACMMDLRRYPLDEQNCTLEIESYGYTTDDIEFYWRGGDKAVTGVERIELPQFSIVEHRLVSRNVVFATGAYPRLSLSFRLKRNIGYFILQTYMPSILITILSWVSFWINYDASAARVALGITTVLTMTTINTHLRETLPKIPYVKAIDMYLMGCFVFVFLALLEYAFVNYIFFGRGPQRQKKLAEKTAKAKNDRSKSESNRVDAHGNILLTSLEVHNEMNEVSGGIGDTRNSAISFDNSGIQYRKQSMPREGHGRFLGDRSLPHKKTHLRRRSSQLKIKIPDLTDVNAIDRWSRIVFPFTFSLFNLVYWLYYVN
T1 sequence (P18507 40-475): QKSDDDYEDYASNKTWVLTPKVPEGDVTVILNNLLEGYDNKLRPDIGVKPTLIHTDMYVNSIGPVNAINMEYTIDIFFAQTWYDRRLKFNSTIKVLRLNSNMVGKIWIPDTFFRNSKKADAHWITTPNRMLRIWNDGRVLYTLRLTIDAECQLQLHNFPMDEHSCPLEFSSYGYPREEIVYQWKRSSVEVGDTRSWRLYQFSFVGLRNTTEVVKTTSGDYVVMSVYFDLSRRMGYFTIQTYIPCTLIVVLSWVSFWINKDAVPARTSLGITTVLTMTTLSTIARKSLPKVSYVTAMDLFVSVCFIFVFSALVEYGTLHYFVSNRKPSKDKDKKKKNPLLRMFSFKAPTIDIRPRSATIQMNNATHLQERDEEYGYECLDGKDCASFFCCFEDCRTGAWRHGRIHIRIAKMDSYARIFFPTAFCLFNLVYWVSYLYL
Summary of the method: (§1)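 Potentiation of the GABA EC20 current by 100 nM compound is the read-out, recorded by two-electrode voltage clamp at −80 mV in oocytes carrying human α1, α2, α3 or α5 with β3 and γ2L. Baseline came from three 20-s applications of 60 μM GABA.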

[3] = target: T2, α2 subtype containing GABA-A receptors (Homo sapiens, UniProt P18507+P47869); experiment: Two-electrode voltage clamp electrophysiology in Xenopus oocytes, potentiation of GABA EC20 response, α2; format: cell-based; conditions: 100 nM compound; for activation at 0.1 µM: read-out: Percentage of potentiation alpha2
T2 construct: expressed in transfected cells; host or cells: Xenopus laevis oocytes, cRNA injected
T2 sequence (P47869 29-451): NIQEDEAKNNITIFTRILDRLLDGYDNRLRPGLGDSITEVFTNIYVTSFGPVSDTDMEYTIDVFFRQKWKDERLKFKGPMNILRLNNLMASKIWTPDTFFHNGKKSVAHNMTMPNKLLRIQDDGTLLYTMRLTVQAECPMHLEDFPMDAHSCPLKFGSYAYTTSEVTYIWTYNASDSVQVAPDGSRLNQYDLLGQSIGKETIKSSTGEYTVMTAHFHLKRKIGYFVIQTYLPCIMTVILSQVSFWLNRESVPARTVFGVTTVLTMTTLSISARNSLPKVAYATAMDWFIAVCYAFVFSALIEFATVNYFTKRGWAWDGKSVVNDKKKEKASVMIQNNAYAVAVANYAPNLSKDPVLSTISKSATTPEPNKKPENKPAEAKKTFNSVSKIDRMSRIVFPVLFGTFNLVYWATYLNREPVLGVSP
T2 sequence (P28472 26-473 partner): as the sequence (P28472 26-473 partner) above
T2 sequence (P18507 40-475): as the sequence (P18507 40-475) above
Summary of the method: as §1

[4] = target: T3, α3 subtype containing GABA-A receptors (Homo sapiens, UniProt P18507+P34903); experiment: Two-electrode voltage clamp electrophysiology in Xenopus oocytes, potentiation of GABA EC20 response, α3; format: cell-based; conditions: 100 nM compound, read-out: Percentage of potentiation alpha3
T3 construct: expressed in transfected cells; host or cells: Xenopus laevis oocytes, cRNA injected
T3 sequence (P34903 29-492): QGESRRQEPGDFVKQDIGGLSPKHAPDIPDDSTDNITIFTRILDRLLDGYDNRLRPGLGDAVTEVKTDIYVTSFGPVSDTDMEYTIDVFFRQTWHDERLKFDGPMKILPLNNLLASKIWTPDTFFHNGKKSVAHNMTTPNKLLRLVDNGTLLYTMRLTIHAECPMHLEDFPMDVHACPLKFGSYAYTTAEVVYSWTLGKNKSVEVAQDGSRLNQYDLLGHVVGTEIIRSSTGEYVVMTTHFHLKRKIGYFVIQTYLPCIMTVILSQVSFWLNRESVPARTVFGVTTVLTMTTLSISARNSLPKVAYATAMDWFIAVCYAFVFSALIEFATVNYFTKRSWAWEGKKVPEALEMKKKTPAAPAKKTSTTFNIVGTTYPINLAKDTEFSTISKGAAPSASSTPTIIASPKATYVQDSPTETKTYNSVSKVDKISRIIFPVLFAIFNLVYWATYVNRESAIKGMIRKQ
T3 sequence (P28472 26-473 partner): as the sequence (P28472 26-473 partner) above
T3 sequence (P18507 40-475): as the sequence (P18507 40-475) above
Description: Electrophysiology protocol: Oocytes were prepared from adult female Xenopus laevis frogs. cRNA encoding human α1, α2, α3, α5, β3 and γ2L GABAA receptor subunits was injected into the cytoplasm of stage 5 or 6 oocytes using the Robocyte Robot (Multi Channel Systems, Reutlingen, Germany). Two-electrode voltage clamp recordings were made in 96-well plates using the Robocyte Robot. Oocytes were impaled using recording heads with two glass electrodes containing 1.5 M potassium acetate and 0.5 M KCl and held at a membrane potential of −80 mV. Oocytes were continually perfused with a ND96 solution (96 mM NaCl, 2 mM KCl, 0.1 mM CaCl2, and 5 mM HEPES, pH 7.5) using a Gilson 222 XL Liquid Handler and Gilson Minipuls 3 Peristaltic Pump (Gilson Medical Electronics, Middleton, Wis., USA). The protocol consisted of three 20-s applications of GABA that gave a 20% of the maximum response (EC20: 60 μM) to allow for headroom to determine a baseline GABA response. To assess the potentiation, oocytes were first exposed to a single 1 μM chlordiazepoxide (CDP) as a potentiation standard. Oocytes with insufficient expression levels (currents below threshold) or insufficient γ2L subunit incorporation (judged by rapid desensitization upon GABA application, or by insufficient potentiation by CDP) were not included in analysis. Following this control application, a given oocyte was exposed to test compounds at 100 nM concentrations. Only one concentration of one compound was tested per oocyte. […] One skilled in the art will recognize that subtypes contribute to the effects of GABA-A modulators. Such that compounds favoring different subtypes can have different therapeutic effects. The magnitude of modulation, for example, partial modulators can influence the effects in vivo. “++” indicates a greater modulation that “+” so that at any given subtype “++” inducates a greater amount of modulation for that subtype. In some embodiments, modulation favoring alpha 1 relative to alpha2 and/or alpha 3 can have sedative hypnotic effects. In other embodiments, compounds with reduced selectivity of alpha 1 can express anxiolytic effects with less sedation. Compounds with selectivity for alpha 5 can have memory/cognition enhancing effects.

rhesus monkeys = experiment: Rhesus monkey conflict test; format: in vivo; conditions: cumulative dosing
From the text: Conflict protocol: The conflict procedure is a well established operant conditioning approach to evaluate anxiolytic-like effects of test compounds. In this procedure, positively-reinforced behavior is suppressed by response-contingent administration of a noxious stimulus (i.e., mild electric shock). Compounds with anxiolytic effects in humans (e.g., benzodiazepines) characteristically increase rates of responding that are suppressed by shock and are referred to as anti-conflict or anxiolytic-like effects. […] In addition to anxiolytic-like effects, conflict procedures also provide an assessment of the ability of the animal to perform operant lever pressing. This is typically assessed by including lever pressing in the absence of the noxious stimulus. Most anxiolytic compounds will decrease rates of responding in the absence of shock at doses higher than those that induce anxiolytic-like effects. The effects contributing to anxiolytic-induced decreases in non-suppressed responding are not well understood, but likely consist of a combination of motor co-ordination deficits and sedative effects.
Adult rhesus monkeys were used in these studies (n=1-4). Weights of the monkeys ranged from 6.2 to 10.5 kg. The animals had been previously trained using the conflict procedure. Animals were maintained at 85-95% of their free-feeding weights by manipulation of food intake. Monkeys were individually housed with water available ad libitum, and maintained on a 12 hour lights-on/12 hour lights-off cycle (lights on at 0600 a.m.). Monkeys received Harlan Teklad diet (15% Primate Diet) as well as supplemental feeding (fruits, vegetables, and commercially available primate treats) daily. They were also given toys and video enrichment when not in an experimental session. Each animal was prepared prior to the study with a chronic indwelling venous catheter for drug delivery. A polyvinyl chloride catheter was implanted in a jugular, femoral or brachial vein under isoflurane anesthesia and aseptic conditions. The proximal end of the catheter terminated above the right atrium, and the distal end was passed subcutaneously to exit in the midscapular region. Experimental sessions began 5-7 days following surgery. Catheters had been implanted approximately 3 months to 1 year prior to the initiation of the study. During experimental sessions, monkeys were seated in primate chairs that were placed in ventilated sound-attenuating chambers. A single response lever was mounted on the wall of the chamber in front of the monkey. Each press of a lever produced an audible click and was recorded as a response via electromechanical equipment, a computer interface, and PC with specialized software. Food pellets could be delivered into a tray located next to the lever. Mild electric shock could be delivered to the bottom of the feet via brass electrodes that were fitted to shoes. Red and green lights mounted above the levers could be illuminated to serve as visual stimuli.
Monkeys were trained under a multiple schedule of food reinforcement adapted from Spealman (1979). A daily session consisted of 4 cycles, each preceded by a 10-min time out period in which all lights in the chamber were off and responding had no programmed consequences. Each cycle consisted of two components, component 1 and 2. Component 1 was signaled by red stimulus lights and consisted of an 18-response schedule (FR18) of food pellet delivery (i.e., the animal receives a food pellet following 18 responses). Component 2, signaled by green stimulus lights, followed immediately and consisted of the FR18 schedule of food delivery combined with a FR20 schedule of foot shock delivery (1.5-3.0 mA, adjusted for each monkey based on individual performance, 0.25 sec duration). Delivery of a food pellet (FR18 schedule) was followed by a 10 sec time out in which responses had no programmed consequences. […]

Swiss Webster (CFW) mice = experiment: Four Plate Test (FPT); format: in vivo; conditions: mouse, 30 min before test, 2 min session
From the text: Four Plate Test (FPT) Protocol: The four plate test (FPT) is an animal model of anxiety in which simple ongoing behavior (exploration of novel surroundings) is suppressed by the delivery of mild electric foot-shock contingent to quadrant crossing (Aron, et al., 1971). Clinically effective classes of anxiolytic compounds such as benzodiazepines, selective serotonin reuptake inhibitors, or 5-HT1A receptor agonists produce a marked anti-punishment effect (an increase in punished crossings), which is thought to indicate anxiolytic activity (Aron, et al., 1971; Bourin, et al., 1992; Hascoet, et al., 2000; Ring, et al., 2006). The four plate apparatus (Bioseb, Chaville France) consists of a cage (18×25×16 cm) floored by four identical rectangular metal plates (8×11 cm) separated from one another by a gap of 4 mm. The plates are connected to a shocker unit that can generate electric foot shocks.
Male Swiss Webster (CFW) mice from Charles River (Wilmington, Mass.) were used for the FPT. Mice were received at 3-weeks of age. Upon receipt, mice were assigned unique identification numbers (tail marked) and were group housed with 4 mice per cage in mouse ventilated racks. All animals remained housed in groups of four during the remainder of the study. All mice were acclimated to the colony room for at least one week prior to testing and were subsequently tested at an average age of 4 weeks of age. During the period of acclimation, mice […] were examined on a regular basis, handled, and weighed to assure adequate healtH, D and suitability. Animals were maintained on a 12/12 light/dark cycle. The room temperature was maintained between 20 and 23° C. with a relative humidity maintained between 30% and 70%. Chow and water were provided ad libitum for the duration of the study. In each test, animals were randomly assigned across treatment groups. Alprazolam (0.3 mg/kg) was used as the positive control. Compounds of the present invention, vehicle (45% hydroxypropyl beta-cyclodextrin) and alprazolam were administered orally to all groups (n=10 mice per group) 30 minutes prior to behavioral testing. Following pretreatment, mice were gently placed in the four plate chamber and allowed to explore the enclosure for 18 seconds. After the exploration period, every time the mouse crossed from one plate to another, the experimenter, blind to the dosing conditions, administered a mild electric foot-shock, and referred to as a punished crossing. The intensity and duration of the foot-shock were 0.5 mA for 0.5 seconds. The number of punished crossings was recorded during the 2 min test session. The plates were thoroughly cleaned with 70% ethanol immediately after each mouse. All data were analyzed using an analysis of variance (ANOVA) followed by Fisher's PLSD post hoc test. An effect was considered significance if p<0.05. Statistical outliers above or below 2 standard deviations from the mean in any of the […] were removed from the final analysis.

SMILES: CN1CC[C@@H](Oc2ccnc(NCc3c(-c4ccc(F)cc4)nc4ccc(Cl)cn34)n2)C1 [Compound 183, (R)—N-((6-chloro-2-(4-fluorophenyl)imidazo[1,2-a]pyridin-3-yl)methyl)-4-(1-methylpyrrolidin-3-yloxy)pyrimidin-2-amine]
- % Inhibition at 1000 nM for CBZD [1]: ++ (percentage of inhibition of central BZD site binding is greater than 80% in the presence of 1000 nM of the compound)
- activation at 0.1 µM [2]: ≥ 50%
- activation at 0.1 µM [3]: ≥ 50%
- activation at 0.1 µM [4]: -10 to 10%

SMILES: Cc1nnc2n1-c1ccc(Cl)cc1C(c1ccccc1)=NC2 [Alprazolam, reference compound]
- Non-Suppressed Response Rates Mean ± S.E.M. (rhesus monkeys; 0.003 mg/kg IV): 2.18 ± 0.26 Responses/Second
- Suppressed Response Rates Mean ± S.E.M. (rhesus monkeys; 0.003 mg/kg IV): 0.04 ± 0.02 Responses/Second
- Non-Suppressed Response Rates Mean ± S.E.M. (rhesus monkeys; 0.01 mg/kg IV): 2.62 ± 0.32 Responses/Second
- Suppressed Response Rates Mean ± S.E.M. (rhesus monkeys; 0.01 mg/kg IV): 0.76 ± 0.26 Responses/Second
- Non-Suppressed Response Rates Mean ± S.E.M. (rhesus monkeys; 0.03 mg/kg IV): 2.38 ± 0.36 Responses/Second
- Suppressed Response Rates Mean ± S.E.M. (rhesus monkeys; 0.03 mg/kg IV): 2.28 ± 0.55 Responses/Second
- Non-Suppressed Response Rates Mean ± S.E.M. (rhesus monkeys; 0.1 mg/kg IV): 1.16 ± 0.26 Responses/Second
- Suppressed Response Rates Mean ± S.E.M. (rhesus monkeys; 0.1 mg/kg IV): 1.44 ± 0.57 Responses/Second

SMILES: Fc1ccc(-c2nc3ccc(F)cn3c2Cn2nccn2)cc1 [Compound 60, 3-((2H-1,2,3-triazol-2-yl)methyl)-6-fluoro-2-(4-fluorophenyl)H-imidazo[1,2-a]pyridine]
- % Inhibition at 1000 nM for CBZD [1]: ++ (percentage of inhibition of central BZD site binding is greater than 80% in the presence of 1000 nM of the compound)
- Percentage of potentiation alpha1 [2]: 0 (percentage of potentiation is between about 10% to about −10%)
- Percentage of potentiation alpha2 [3]: + (percentage of potentiation is greater than or equal to 10% but less than 50% in the presence of 100 nM of the compound)
- Number of Punished Crossings Mean ± S.E.M. (Swiss Webster (CFW) mice; 3 mg/kg PO): 6.3 ± 0.45
- Number of Punished Crossings Mean ± S.E.M. (Swiss Webster (CFW) mice; 10 mg/kg PO): 6.3 ± 0.70
- Number of Punished Crossings Mean ± S.E.M. (Swiss Webster (CFW) mice; 30 mg/kg PO): 6.0 ± 0.30

SMILES: NC(=O)c1nccn1Cc1c(-c2ccc(Cl)cc2)nc2ccccn12 [Compound 76, 1-((2-(4-chlorophenyl)H-imidazo[1,2-a]pyridin-3-yl)methyl)-1H-imidazole-2-carboxamide]
- % Inhibition at 1000 nM for CBZD [1]: ++ (percentage of inhibition of central BZD site binding is greater than 80% in the presence of 1000 nM of the compound)
- Percentage of potentiation alpha1 [2]: 0 (percentage of potentiation is between about 10% to about −10%)
- Percentage of potentiation alpha2 [3]: + (percentage of potentiation is greater than or equal to 10% but less than 50% in the presence of 100 nM of the compound)
- Number of Punished Crossings Mean ± S.E.M. (Swiss Webster (CFW) mice; 3 mg/kg PO): 6.7 ± 0.45
- Number of Punished Crossings Mean ± S.E.M. (Swiss Webster (CFW) mice; 10 mg/kg PO): 6.9 ± 0.35
- Number of Punished Crossings Mean ± S.E.M. (Swiss Webster (CFW) mice; 30 mg/kg PO): 6.3 ± 0.62

SMILES: Cc1cccc(=O)n1Cc1c(-c2ccc(Cl)cc2)nc2ccc(F)cn12 [Compound 120, 1-((2-(4-chlorophenyl)-6-fluoroimidazo[1,2-a]pyridin-3-yl)methyl)-6-methylpyridin-2(1H)-one]
- % Inhibition at 1000 nM for CBZD [1]: ++ (percentage of inhibition of central BZD site binding is greater than 80% in the presence of 1000 nM of the compound)
- activation at 0.1 µM [2]: ≥ 50%
- activation at 0.1 µM [3]: ≥ 50%

SMILES: CN1CC[C@H](Oc2ccnc(NCc3c(-c4ccc(F)cc4)nc4ccc(Cl)cn34)n2)C1 [Compound 184, (S)—N-((6-chloro-2-(4-fluorophenyl)imidazo[1,2-a]pyridin-3-yl)methyl)-4-(1-methylpyrrolidin-3-yloxy)pyrimidin-2-amine]
- % Inhibition at 1000 nM for CBZD [1]: ++ (percentage of inhibition of central BZD site binding is greater than 80% in the presence of 1000 nM of the compound)
- activation at 0.1 µM [2]: 10 to 50%
- activation at 0.1 µM [3]: 10 to 50%
